Reference: US20120302573A1, “METHODS OF INHIBITING PRO MATRIX METALLOPROTEINASE ACTIVATION” (priority 2011, published 2012)
pIC50, pKd: −log10 of the molar value. Structures can show the parent of a compound that is named as a salt.

Columns and labels:
[1] = target: T1, proMMP9(67-444;ΔFnII) (SEQ ID NO:5) (Homo sapiens, UniProt P14780, DEL216-390); assay: ThermoFluor binding assay with proMMP9(67-444;ΔFnII)
T1 construct: amino acid pairs including: 29-215/391-444, 67-215/391-444, and 20-215/391-445, respectively; start methionine (N); made in house; host or cells: E. coli BL21(DE3) RIL
T1 sequence (P14780 with tags, fused parts or gaps DEL216-390): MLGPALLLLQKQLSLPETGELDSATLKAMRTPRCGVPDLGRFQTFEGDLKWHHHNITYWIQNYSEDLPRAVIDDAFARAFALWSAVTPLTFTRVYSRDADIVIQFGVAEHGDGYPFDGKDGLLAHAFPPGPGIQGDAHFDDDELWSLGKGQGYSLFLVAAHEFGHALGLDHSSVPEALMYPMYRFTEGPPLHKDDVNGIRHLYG
Method in brief: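 Thermal shift (ThermoFluor) with 1,8-ANS dye; protein desalted by buffer exchange before use. Samples heated 40 to 90 °C at 1 °C/min, excitation 380-400 nm, emission 500±25 nm. Binding fitted using unfolding thermodynamic parameters from DSC and ThermoFluor dosing data.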

[2] = target: T2, proMMP9(20-445;ΔFnII) (SEQ ID NO:6) (Homo sapiens, UniProt P14780, DEL216-390); assay: ThermoFluor binding assay with proMMP9(20-445;ΔFnII)
T2 construct: amino acid pairs including: 29-215/391-444, 67-215/391-444, and 20-215/391-445, respectively; start methionine (N); made in house; host or cells: E. coli BL21(DE3) RIL
T2 sequence (P14780 with tags, fused parts or gaps DEL216-390): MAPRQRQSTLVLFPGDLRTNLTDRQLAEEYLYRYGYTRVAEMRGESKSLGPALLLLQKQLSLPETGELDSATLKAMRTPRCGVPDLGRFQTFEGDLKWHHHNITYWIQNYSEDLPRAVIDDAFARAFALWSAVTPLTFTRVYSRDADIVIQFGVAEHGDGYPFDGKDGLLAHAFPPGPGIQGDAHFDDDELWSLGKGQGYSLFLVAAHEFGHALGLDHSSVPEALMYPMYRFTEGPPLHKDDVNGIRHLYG
Method in brief: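 Thermal shift with 1,8-ANS dye, heating from 40 to 90 °C at 1 °C/min. Fluorescence excited at 380–400 nm and read at 500±25 nm. Protein was buffer-exchanged by desalting, and binding fitted using heat capacity and thermodynamic parameters from DSC and ThermoFluor dosing data, with DMSO reference wells.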

human catalytic MMP9 = target: T3, human catalytic MMP9 (Homo sapiens, UniProt P14780); assay: Catalytic MMP9 enzyme assay (fluorogenic peptide P-126); format: biochemical
T3 construct: purchased BioMol SE-244
T3 sequence (P14780 107-445 limits assumed): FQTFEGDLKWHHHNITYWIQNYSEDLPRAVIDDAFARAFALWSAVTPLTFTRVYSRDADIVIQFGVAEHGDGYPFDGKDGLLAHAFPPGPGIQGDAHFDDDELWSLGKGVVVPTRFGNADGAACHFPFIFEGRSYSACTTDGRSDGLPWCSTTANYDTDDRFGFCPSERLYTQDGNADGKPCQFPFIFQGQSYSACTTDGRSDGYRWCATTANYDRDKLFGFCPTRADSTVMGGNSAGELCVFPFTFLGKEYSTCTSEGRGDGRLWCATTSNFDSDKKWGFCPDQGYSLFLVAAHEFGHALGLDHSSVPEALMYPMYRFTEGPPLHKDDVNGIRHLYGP
Method: The assay buffer employed was 50 mM Hepes, pH 7.5, 10 mM CaCl2, 0.05% Brij-35. DMSO was included at a final concentration of 2%, arising from the test compound addition. The reaction volume was 100 μL. […] Initial velocities were plotted by use of a four-parameter logistics equation (GraphPad Prism® software) for determination of IC50, if required.

[3] = target: T4, human catalytic MMP3, MMP3(100-265) (Homo sapiens, UniProt P08254); assay: Catalytic MMP3 enzyme assay (fluorogenic peptide M2110); format: biochemical
T4 construct: Catalytic MMP3 was amino acids 100-265 of human MMP3 from UniProtKB/Swiss-Prot P08254; 6x-Histidine tag (C); made in house; host or cells: E. coli
T4 sequence (P08254 with tags, fused parts or gaps): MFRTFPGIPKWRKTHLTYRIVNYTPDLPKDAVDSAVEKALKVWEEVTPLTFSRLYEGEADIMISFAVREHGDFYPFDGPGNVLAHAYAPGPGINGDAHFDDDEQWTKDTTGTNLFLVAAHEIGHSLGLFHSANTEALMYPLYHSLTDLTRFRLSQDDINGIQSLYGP
Method: Compounds were assessed for inhibition of human catalytic MMP3, MMP3(100-265) (SEQ ID NO:8), using a peptide (Mca-RPKPVE-Nva-WRK(Dnp)-NH2, Bachem M2110) that fluoresces upon cleavage by catalytic MMP3. […] The reaction volume was 100 μL. […] Final concentrations employed were 20 nM catalytic MMP3 and 20 μM M2110 substrate.

[4] = target: T5, full-length proMMP9(1-707) activation by catalytic MMP3 (Homo sapiens, UniProt P14780, R574P); assay: proMMP9/MMP3 P126 Activation Assay; format: biochemical; parameters: made in house; host or cells: E. coli (MMP3); details: proMMP9 from HEK293 cells
T5 sequence (P14780 20-707 R574P): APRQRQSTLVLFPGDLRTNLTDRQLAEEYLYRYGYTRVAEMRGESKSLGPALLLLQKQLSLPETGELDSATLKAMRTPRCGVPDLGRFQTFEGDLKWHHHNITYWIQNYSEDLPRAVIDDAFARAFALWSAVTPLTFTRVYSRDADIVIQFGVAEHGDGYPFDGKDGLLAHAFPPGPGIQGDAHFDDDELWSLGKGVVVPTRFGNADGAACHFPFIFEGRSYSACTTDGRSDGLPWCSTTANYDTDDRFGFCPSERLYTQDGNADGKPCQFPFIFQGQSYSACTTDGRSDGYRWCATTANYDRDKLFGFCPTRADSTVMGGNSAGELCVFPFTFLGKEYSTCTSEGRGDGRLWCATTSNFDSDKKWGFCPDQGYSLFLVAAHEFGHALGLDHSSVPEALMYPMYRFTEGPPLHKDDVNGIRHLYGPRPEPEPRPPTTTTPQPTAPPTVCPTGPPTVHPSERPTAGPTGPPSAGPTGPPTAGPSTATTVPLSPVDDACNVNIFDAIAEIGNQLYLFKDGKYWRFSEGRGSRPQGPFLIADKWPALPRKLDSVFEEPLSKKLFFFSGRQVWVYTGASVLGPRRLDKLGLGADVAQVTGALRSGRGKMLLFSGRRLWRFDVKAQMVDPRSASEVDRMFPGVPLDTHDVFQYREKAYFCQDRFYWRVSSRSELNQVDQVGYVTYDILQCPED
Method: The assay buffer employed was 50 mM Hepes, pH 7.5, 10 mM CaCl2, 0.05% Brij-35. DMSO was included at a final concentration of 2%, arising from the test compound addition. […] The reaction volume was 50 μL. […] Initial velocities were plotted by use of a four-parameter logistics equation (GraphPad Prism® software) for determination of IC50.

[5] = target: T6, proMMP13(1-268) (SEQ ID NO:7) (Homo sapiens, UniProt P45452); assay: ThermoFluor binding assay with proMMP13(1-268)
T6 construct: 6x-histidine tag (C); made in house; host or cells: HEK293
Method: The ThermoFluor® (TF) assay is a 384-well plate-based binding assay that measures thermal stability of proteins (Biomol Screen 2001, 6, 429-40; Biochemistry 2005, 44, 5258-66). The experiments were carried out using instruments available from Johnson & Johnson Pharmaceutical Research & Development, LLC. TF dye used in all experiments was […] (1,8-ANS) (Invitrogen: A-47).
Compounds were arranged in a pre-dispensed plate (Greiner Bio-one: 781280), wherein compounds were serially diluted in 100% DMSO across 11 columns within a series. Columns 12 and 24 were used as DMSO reference and contained no compound. For multiple compound concentration-response experiments, the compound aliquots ([…]) were robotically predispensed directly into black 384-well polypropylene PCR microplates (Abgene: TF-0384/k) using a Cartesian Hummingbird liquid handler (DigiLab, Holliston, Mass.). Following compound dispense, protein and dye solutions were added to achieve the final assay volume of 3 μL. The assay solutions were overlayed with 1 μL of silicone oil (Fluka, type DC 200: 85411) to prevent evaporation.
Assay plates were robotically loaded onto a thermostatically controlled PCR-type thermal block and then heated from 40 to 90° C. at a ramp-rate of 1° C./min for all experiments. Fluorescence was measured by continuous illumination with UV light (Hamamatsu LC6) supplied via fiber optics and filtered through a band-pass filter (380-400 nm; >6 OD cutoff). Fluorescence emission of the entire 384-well plate was detected by measuring light intensity using a CCD camera (Sensys, Roper Scientific) filtered to detect 500±25 nm, resulting in simultaneous and independent readings of all 384 wells. A single image with 20-sec exposure time was collected at each temperature, and the sum of the pixel intensity in a given area of the assay plate was recorded vs temperature and fit to standard equations to yield the Tm (J Biomol Screen 2001, 6, 429-40).
Thermodynamic parameters necessary for fitting compound binding for each proMMP were estimated by differential scanning calorimetry (DSC) and from ThermoFluor® data. The heat capacity of unfolding for each protein was estimated from the molecular weight and from ThermoFluor® dosing data.
The proMMP13(1-268) (SEQ ID NO:7) protein sample preparations included a desalting buffer exchange step via a PD-10 gravity column (GE Healthcare). The desalting buffer exchange was performed prior to diluting the protein to the final assay concentration of 3.5 μM. The concentration of proMMP13(1-268) (SEQ ID NO:7) was estimated spectrophotometrically based on a calculated extinction coefficient of ε280=37000 M^−1 cm^−1, a calculated molecular weight of 30.8 kDa, and calculated pI of 5.33. ThermoFluor® reference conditions were defined as follows: 100 μg/mL proMMP13(1-268) (SEQ ID NO:7), 25 μM 1,8-ANS, pH 7.0 Buffer (50 mM HEPES pH 7.0, 100 mM NaCl, 0.001% Tween-20, 2.5 mM MgCl2, 300 μM CaCl2). The thermodynamic parameters for proMMP13(1-268) (SEQ ID NO:7) are as follows: Tm (° C.)=67 (+/−0.1), ΔUH(Tm) (cal mol^−1)=107000(+/−5000), ΔUS(Tm) (cal mol^−1 K^−1)=318, ΔUCp (cal mol^−1 K^−1)=2600.

[6] = target: T5, full-length proMMP9(1-707) activation by catalytic MMP3; assay: ProMMP9/MMP3 DQ Gelatin Activation Assay;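 also: readout is fluorescence of quenched fluorescein gelatin cut by activated MMP9, 30 min activation at 37 °C, inhibition relative to DMSO-only controls with EDTA as blank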; format: biochemical; parameters: made in house; host or cells: COS-1 (proMMP9); E. coli (MMP3); details: proMMP9 from COS-1 cells; read-out: ProMMP9/MMP3 DQ gel, IC50
Method: Compounds were assessed for inhibition of proMMP9 activation by catalytic MMP3 using a quenched fluorescein gelatin substrate (DQ gelatin, Invitrogen D12054) that fluoresces upon cleavage by activated MMP9. The assay buffer employed was 50 mM Hepes, pH 7.5, 10 mM CaCl2, 0.05% Brij-35. DMSO was included at a final concentration of 0.2%, arising from the test compound addition. […] Test compounds in DMSO were diluted 250-fold in assay buffer at 4× the final concentration. The reaction volume was 12 μL, and all reactions were conducted in triplicate. […] The plate was sealed and incubated for 30 min at 37° C. […] Immediately following the 30 min incubation, 4 μL of 40 μg/ml DQ gelatin substrate was added (freshly diluted in assay buffer), and incubated for 10 min at room temperature. […] Reactivity of residual MMP3 towards DQ gelatin was minimal under these conditions. Percent inhibition of test compounds were determined from suitable positive (DMSO only in assay buffer) and negative (EDTA added prior to reaction initiation) controls. Plots of % inhibition vs. test compound concentration were fit to a four-parameter logistics equation (GraphPad Prism® software) for determination of IC50.

| SMILES | pKd [1] | pKd [2] | pIC50 (human catalytic MMP9) | pIC50 [3] | pIC50 [4] | pKd [5] | pIC50 [6] |
| --- | --- | --- | --- | --- | --- | --- | --- |
| COc1ccc(F)cc1Nc1nc(-c2sc(N)nc2C)cs1 [Example 4, N^2-(5-Fluoro-2-methoxy-phenyl)-4′-methyl-[4,5′]bithiazolyl-2,2′-diamine.HBr] | 6.60 | 5.77 | < 4.30 | < 4.30 | 5.82 | – | – |
| CC(=O)Nc1nc(C)c(-c2csc(Nc3cc(F)ccc3OC(C)C)n2)s1 [Example 12, N-[2-(5-Fluoro-2-isopropoxy-phenylamino)-4′-methyl-[4,5′]bithiazolyl-2′-yl]-acetamide] | 5.53 | 4.86 | – | – | 5.44 | 4.92 | – |
| Cc1nc(C)c(-c2csc(Nc3cc(F)ccc3OC(C)C)n2)s1 [Example 13, (2′,4′-Dimethyl-[4,5′]bithiazolyl-2-yl)-(5-fluoro-2-isopropoxy-phenyl)-amine] | < 4.02 | < 4.02 | – | – | ~5.70 | < 4.02 | – |
| COc1ccc(Br)cc1Nc1nc(-c2sc(NC(C)=O)nc2C)cs1 [Example 21, N-[2-(5-Bromo-2-methoxy-phenylamino)-4′-methyl-[4,5′]bithiazolyl-2′-yl]-acetamide.HBr] | 6.85 | 5.35 | – | – | 5.55 | 5.45 | – |
| COc1ccccc1Nc1nc(-c2sc(C)cc2C)cs1 [Example 45, [4-(3,5-Dimethyl-thiophen-2-yl)-thiazol-2-yl]-(2-methoxy-phenyl)-amine.TFA] | 5.00 | 5.78 | – | – | < 4.30 | < 4.02 | < 4.70 |
| COc1ccc(Cl)cc1Nc1nc(-c2sc(NC(C)=O)nc2C)cs1 [Example 59, N-[2-(5-Chloro-2-methoxy-phenylamino)-4′-methyl-[4,5′]bithiazolyl-2′-yl]-acetamide] | 6.23 | 4.53 | < 4.30 | < 4.30 | 6.28 | – | 6.47 |
| COc1ccccc1Nc1nc(-c2sc(NC(C)=O)nc2C)cs1 [Example 65, N-[2-(2-Methoxy-phenylamino)-4′-methyl-[4,5′]bithiazolyl-2′-yl]-acetamide] | – | – | – | < 4.30 | – | 4.43 | – |
| COc1ccc(Cl)cc1Nc1nc(-c2sc(N)nc2C)cs1 [Example 67, N^2-(5-Chloro-2-methoxy-phenyl)-4′-methyl-[4,5′]bithiazolyl-2,2′-diamine] | 6.50 | 5.61 | < 4.30 | < 4.30 | 5.68 | – | – |

The remaining molecules from weak to strong by pKd [1], led by results:

| pKd [1] | pKd [2] | pIC50 (human catalytic MMP9) | pIC50 [3] | pIC50 [4] | pKd [5] | pIC50 [6] | SMILES |
| --- | --- | --- | --- | --- | --- | --- | --- |
| 4.92 | 5.24 | – | – | < 4.70 | 6.18 | – | Brc1ccc(Nc2nc(-c3cccnc3)cs2)cn1 [Example 70, (6-Bromo-pyridin-3-yl)-(4-pyridin-3-yl-thiazol-2-yl)-amine] |
| 5.05 | < 4.02 | – | – | 5.44 | < 4.02 | – | COc1ccc(F)cc1Nc1nc(-c2cccnc2)cs1 [Example 16, (5-Fluoro-2-methoxy-phenyl)-(4-pyridin-3-yl-thiazol-2-yl)-amine.HBr] |
| 5.95 | 5.42 | – | – | 5.60 | 4.84 | 5.51 | COc1ccccc1Nc1nc(-c2sc(N)nc2C)cs1 [Example 68, N^2-(2-Methoxy-phenyl)-4′-methyl-[4,5′]bithiazolyl-2,2′-diamine] |
| 6.09 | 5.44 | – | – | 5.40 | 4.36 | 5.64 | COc1ccccc1Nc1nc(-c2sc(NS(C)(=O)=O)nc2C)cs1 [Example 34, N-[2-(2-Methoxy-phenylamino)-4′-methyl-[4,5′]bithiazolyl-2′-yl]-methanesulfonamide] |
